From patent US8324457B2, “Soybean event 3560.4.3.5 and compositions and methods for the identification and/or detection thereof” (Pioneer Hi-Bred International, Inc., priority 2006, dated 2012)
Like-named read-outs stand apart in the source and are kept apart here.

Columns and labels:
3560.4.3.5 soybean [1] = test: Tolerance to glyphosate tank mixes with other pesticides at V2 or R2, crop response rating; conditions: glyphosate 3.36 kg ae ha-1, chlorpyrifos 560.4, bentazon 1120.9, imazethapyr 141.3, fomesafen 263.4, tribenuron-methyl 17.5, thifensulfuron-methyl 17.5 g ai ha-1
Experimental: The first experiments were grown in an RCB design of three replications of paired 3.7 m rows (76.2 cm row spacing), blocked by replication with randomized spray treatments within each replication. […] Visual response ratings (0% to 100%) were assigned to each plot at 7 DAT, 14 DAT, and 28 DAT. Crop response data were analyzed using the GLM and mixed model ANOVA procedures of SAS.

[2] = tested on: untransformed control line; test: Field glyphosate tolerance trial, control line; format: in vivo, Glycine max; conditions: any glyphosate application (3.36, 6.72 or 13.44 kg ae ha-1), 1 to 9 scale
Experimental: (§1) The 3560.4.3.5 soybean event was evaluatead for glyphosate tolerance. […] Plots were evaluated for crop response at 7 and 14 days after treatment (DAT), and rated using a 1-9 score. Crop response data were analyzed using the general linear model (GLM) and mixed model analysis of variance (ANOVA) procedures of SAS. (The SAS System is a registered trademark of SAS Institute, Inc., Cary, N.C., USA)
(§2) The T3 plants from the 3560.4.3.5 plants were sprayed in a glyphosate herbicide tolerance field trial. […] The untransformed control line was susceptible to any glyphosate application and was consistently rated as a 1. 3560.4.3.5 soybean T4 plants were advanced for additional glyphosate tolerance testing.

3560.4.3.5 soybean [3] = test: Field glyphosate tolerance trials, T3 and T4 plants, visual rating; format: in vivo, Glycine max
Experimental: as §1
Selected T4 lines were tested for glyphosate tolerance. This experiment was a RCB design in a split plot arrangement with two replications of individual 1.2 m rows (76.2 cm row spacing). At the V3 growth stage, 6.72 kg ae ha^−1 glyphosate was applied to one block, while another was unsprayed for use as a control. The third block received a sequential application of 6.72 kg ae ha^−1 glyphosate at V3 followed by 6.72 kg ae ha^−1 glyphosate at R1. Plots were evaluated for crop response at 7 DAT and 14 DAT, and assigned a visual response score from 0% to 100% response, where 0%=no response observed to 100%=plot completely dead.
as §2

3560.4.3.5 soybean [4] = format: in vivo, Glycine max; conditions: glyphosate 1.68 kg ae ha^−1, ALS inhibitors 5.8 + 4.4 g ai ha^−1
Experimental: The second set of tolerance experiments were designed to measure yield potential of 3560.4.3.5 soybean after application of common field use rates of glyphosate and/or ALS inhibitor herbicides. […] One experiment was grown at field A and two experiments were grown at field B and C (which were separated by planting date and physical distance of field locations.) In addition, the two fields had different environmental influence; one field experienced drought stress through the spring and early summer, the other was well irrigated throughout the growing season. Treatments were randomized within each of the replications and sprayed at the VC, V2, R2, or R5 growth stages. Treatments consisted of 1.68 kg ai ha^−1 glyphosate, 5.8 g ai ha^−1 chlorimuron ethyl+4.4 g ai ha^−1 thifensulfuron methyl, and 1.68 kg ai ha^−1 glyphosate+5.8 g ai ha^−1 chlorimuron ethyl+4.4 g ai ha^−1 thifensulfuron methyl. […] Plots were harvested and yield was calculated for each plot.
The second set of experiments conducted with event 3560.4.3.5 were designed to measure yield potential after application of different herbicides at field use rates that would be commonly utilized for soybean production. Across the glyphosate, ALS inhibitor, and glyphosate plus ALS inhibitor treatments there was minimal (10% or less) to essentially no response at 7, 14, and 28 DAT (Table 20). When yield data was collected, there were no significant yield differences detected for any of the herbicide treatments applied at different the growth stages (Table 20). In addition, the replications that received herbicide treatments were not statistically different from the unsprayed control replications for yield (Table 20). Based upon multiple year herbicide tolerance trials, it can be concluded that event 3560.4.3.5 had excellent tolerance to field use rates of glyphosate, ALS inhibitor, and glyphosate plus ALS inhibitor herbicides. In addition, yield potential was not affected when event 3560.4.3.5 was sprayed with glyphosate, ALS inhibitor, and glyphosate plus ALS inhibitor chemistries at different vegetative and reproductive growth stages.

[5] = tested on: transgenic event 3560.4.3.5 soybean; test: Greenhouse herbicide tolerance of T0 and T1 plants, visual rating 10 days after spray; format: in vivo, Glycine max
Excerpt: Selected events were advanced at the T1 generation for herbicide tolerance confirmation in greenhouses. Plants were sprayed at the V3 growth stage with either 1.68 kg ae ha^−1 glyphosate, 60 g ai ha^−1 thifensulfuron methyl(methyl 3-[[[[(4-methoxy-6-methyl-1,3,5-triazin-2-yl)amino]carbonyl]amino]sulfonyl]-2-thiophenecarboxylate), or a sequential […] […] […] Since the T1 events were segregating, only the non-susceptible plants were scored, and an average rating of tolerant plants within each event was calculated.
(§3) T0 3560.4.3.5 soybean were evaluated for glyphosate tolerance.
The 3560.4.3.5 event was advanced to the T1 generation in a greenhouse to confirm herbicide tolerance. The 3560.4.3.5 event had tolerance after application of 1.68 kg ae ha^−1 glyphosate, after application of 60.0 g ai ha^−1 thifensulfuron methyl, and after a sequential application of 70 g ai ha^−1 thifensulfuronmethyl at V3, […]

[6] = tested on: untransformed parental line; test: Greenhouse glyphosate spray of the control line, visual rating; format: in vivo, Glycine max; conditions: either glyphosate application rate of the T0 test; 1 to 9 scale, 1 = dead plant
Experimental: Plants were rated using a 1 to 9 scale ten days after treatment (DAT), where 1=dead plant to 9=no observed spray response.
as §3

3560.4.3.5 soybean [7] = test: ALS inhibitor herbicide tolerance field trials, crop response rating; parameters: species or system Glycine max; conditions: in vivo
Excerpt: ALS inhibitor herbicide tolerance of the gm-hra gene was compared to sulfonylurea tolerant soybeans (STS®) by growing T4 plants of event 3560.4.3.5 and a STS® cultivar. […] Spray treatments were applied at the V3 growth stage and consisted of one of the following: an unsprayed control, 8.8 g ai ha^−1 rimsulfuron (N-[[(4,6-dimethoxy-2-pyrimidinyl)amino]carbonyl]-3-(ethylsulfonyl)-2-pyridinesulfonamide), 8.8 g ai ha^−1 tribenuron methyl (methyl 2-[[[[(4-methoxy-6-methyl-1,3,5-triazin-2-yl)methylamino]carbonyl]amino]sulfonyl]benzoate), or 30.0 g ai ha^−1 chlorimuron ethyl (ethyl 2-[[[[(4-chloro-6-methoxypyrimidin-2-yl)amino]carbonyl]amino]sulfonyl]benzoate)+9.67 g ai ha^−1 thifensulfuron methyl. […] Plots were evaluated for crop response at 7 DAT and 14 DAT, and assigned a visual response score from 0% to 100% response. Crop response data were analyzed using the mixed model ANOVA procedure of SAS.
ALS inhibitor herbicide tolerance trials were completed at two separate locations. Plants from the T5 generation of event 3560.4.3.5 and a STS® cultivar were grown in a RCB design in a split plot arrangement with three replications of paired 2.4 m rows (76.2 cm row spacing). […] Crop response data were analyzed using the mixed model ANOVA procedure of SAS. […]

[8] = tested on: seedlings that lacked the event; test: Chlorsulfuron herbicide seedling test on germination paper; format: in vivo, Glycine max; conditions: germination paper saturated with 20 ml/l of a 66.7 mg/l chlorsulfuron stock, pH 7.5; observed 10 days after initial treatment
[9] = tested on: seedlings that possessed the 3560.4.3.5 event; test: as above; format: in vivo, Glycine max; conditions: germination paper saturated with 20 ml/l of a 66.7 mg/l chlorsulfuron stock, pH 7.5; observed 10 days after initial treatment

## O=C(O)CNCP(=O)(O)O [Glyphosate]
3560.4.3.5 soybean [1]; applied at R2
  LSMean crop response rating, 7 DAT Average: 1.7%
  LSMean crop response rating, 14 DAT Average: 0.6%
  LSMean crop response rating, 28 DAT Average: 0.0%
3560.4.3.5 soybean [1]; applied at V2
  LSMean crop response rating, 14 DAT Average: 3.3%
  LSMean crop response rating, 28 DAT Average: 0.6%
3560.4.3.5 soybean [1]; applied at V2, + NIS + AMS, 0% = no response, 100% = plot completely dead
  LSMean crop response rating, 7 DAT Average: 3.9%
[2]
  visual rating: 1
3560.4.3.5 soybean [3]; T3 plants, glyphosate 3.36 kg ae ha-1, 7 DAT, 1 = completely dead plot to 9 = no response
  LSMean visual rating: 8.0
3560.4.3.5 soybean [3]; T3 plants, glyphosate 6.72 kg ae ha-1, 7 DAT, 1 = completely dead plot to 9 = no response
  LSMean visual rating: 6.7
3560.4.3.5 soybean [3]; T3 plants, glyphosate 13.44 kg ae ha-1, 7 DAT, 1 = completely dead plot to 9 = no response
  LSMean visual rating: 5.7
3560.4.3.5 soybean [3]; T4 plants, glyphosate 6.72 kg ae ha-1 at V3, 7 DAT, 1 to 9 scale
  LSMean visual rating: 6.8
3560.4.3.5 soybean [3]; T4 plants, glyphosate 6.72 kg ae ha-1 at V3, 14 DAT, 1 to 9 scale
  LSMean visual rating: 7.8
3560.4.3.5 soybean [3]; T4 plants, sequential glyphosate 6.72 kg ae ha-1 at V3 then 6.72 at R1, 7 DAT after the R1 application, 1 to 9 scale
  LSMean visual rating: 7.8
3560.4.3.5 soybean [3]; T4 plants, sequential glyphosate 6.72 kg ae ha-1 at V3 then 6.72 at R1, 14 DAT after the R1 application, 1 to 9 scale
  LSMean visual rating: 7.7
3560.4.3.5 soybean [4]; Application Stage R2
  crop response rating 7 DAT (LSMean): 2.0%
  crop response rating 14 DAT (LSMean): 0.6%
  crop response rating 28 DAT (LSMean): 0.0%
3560.4.3.5 soybean [4]; Application Stage R5
  crop response rating 7 DAT (LSMean): 0.3%
  crop response rating 14 DAT (LSMean): 0.3%
  crop response rating 28 DAT (LSMean): 0.0%
3560.4.3.5 soybean [4]; Application Stage V2
  crop response rating 7 DAT (LSMean): 5.3%
  crop response rating 14 DAT (LSMean): 2.8%
  crop response rating 28 DAT (LSMean): 0.6%
3560.4.3.5 soybean [4]; Application Stage VC
  crop response rating 7 DAT (LSMean): 1.6%
  crop response rating 14 DAT (LSMean): 0.8%
  crop response rating 28 DAT (LSMean): 0.6%
[5]; T0 plants, glyphosate 1.68 kg ae ha-1 + NIS + AMS, 10 days after application, greenhouse, scale 0 = dead plant to 9 = no response detected
  average visual response rating: 7.0
[5]; T0 plants, glyphosate 3.36 kg ae ha-1 + NIS + AMS, 10 days after application, greenhouse, scale 0 = dead plant to 9 = no response detected
  average visual response rating: 6.5
[5]; T1 tolerant plants, 70 g ai ha-1 thifensulfuron methyl at V3 followed by glyphosate 1.68 kg ae ha-1 at V6, 10 days after the V6 glyphosate application, scale to 9 = no response
  average visual response rating, second score of sequential application: 8.0
[5]; T1 tolerant plants, glyphosate 1.68 kg ae ha-1 + NIS + AMS at V3, 10 days after application, scale to 9 = no response
  average visual response rating: 7.0
[6]
  visual rating: 1

## CCS(=O)(=O)c1cccnc1S(=O)(=O)NC(=O)Nc1nc(OC)cc(OC)n1 [Rimsulfuron, N-[[(4,6-dimethoxy-2-pyrimidinyl)amino]carbonyl]-3-(ethylsulfonyl)-2-pyridinesulfonamide]
3560.4.3.5 soybean [7]
  crop response of 3560.4.3.5 soybean compared to STS, in words: significantly lower crop response compared to STS®

## COc1nc(C)nc(NC(=O)NS(=O)(=O)c2ccccc2Cl)n1 [chlorsulfuron, 2-chloro-N-[[(4-methoxy-6-methyl-1,3,5-triazin-2-yl)amino]-carbonyl]benzenesulfonamide]
[8]
  seedling response in chlorsulfuron solution: created hooked unifoliolate leaves that did not expand and develop any further
[9]
  seedling response in chlorsulfuron solution: germinated and grew normally

## COC(=O)c1sccc1S(=O)(=O)NC(=O)Nc1nc(C)nc(OC)n1 [Thifensulfuron methyl, methyl 3-[[[[(4-methoxy-6-methyl-1,3,5-triazin-2-yl)amino]carbonyl]amino]sulfonyl]-2-thiophenecarboxylate]
[5]; T1 tolerant plants, thifensulfuron methyl 60.0 g ai ha-1 + NIS + AMS at V3, 10 days after application, scale to 9 = no response
  average visual response rating: 7.0
[5]; T1 tolerant plants, thifensulfuron methyl 70 g ai ha-1 + NIS + AMS at V3, 10 days after the V3 application, scale to 9 = no response
  average visual response rating, first score of sequential application: 8.0

## COC(=O)c1ccccc1S(=O)(=O)NC(=O)Nc1nc(C)nc(OC)n1 [Metsulfuron methyl, methyl 2-[[[[(4-methoxy-6-methyl-1,3,5-triazin-2-yl)amino]carbonyl]amino]sulfonyl]benzoate]
3560.4.3.5 soybean [7]
  crop response of 3560.4.3.5 soybean compared to STS, in words: significantly lower crop response compared to STS®
